Test results published in patent publication US20090047244A1, “MACROCYCLIC SERINE PROTEASE INHIBITORS I” (Idenix Pharmaceuticals, Inc., priority 2007, published 2009).

How the values were obtained:
HCV NS3-NS4A protease = target: T1, HCV NS3-NS4A protease (Hepatitis C virus genotype 1a, UniProt P27958); assay: HCV Protease Assay (SensoLyte 620 HCV Protease Assay kit); assay type: biochemical; conditions: 1.2 nM HCV NS3-NS4A protease, 5% DMSO, 60 min at room temperature
T1 construct: made in house
Method: General procedure: Measurement of the inhibitory effect of compounds on HCV protease activity was performed with the SensoLyte™ 620 HCV Protease Assay kit from AnaSpec, Inc. (San Jose, Calif.) under conditions described by the supplier using 1.2 nM HCV NS3-NS4A protease, which was obtained according to Taremi et al. (Protein Science, 1998, 7, 2143-2149). The compounds were tested at a variety of concentrations in assay buffer containing a final DMSO concentration of 5%. Reactions were allowed to proceed for 60 min at room temperature and fluorescence measurements were recorded with a Tecan Infinity Spectrofluorimeter. The IC50 values were determined from the percent inhibition versus concentration data using a sigmoidal non-linear regression analysis based on four parameters with Tecan Magellan software.

[1] = test system: Huh-7 cells containing HCV Con1 subgenomic replicon (GS4.1 cells); assay: HCV Replicon Assay (NS4A ELISA); assay type: cell-based; conditions: Hepatitis C virus, 72 hr, NS4A protein expression by ELISA
Method: General procedure: Huh-7 cells containing HCV Con1 subgenomic replicon (GS4.1 cells) were grown in Dulbecco's Modified Eagle Medium (DMEM) supplemented with 10% fetal bovine serum (FBS), 2 mM L-glutamine, 110 mg/L sodium pyruvate, 1X non-essential amino acids, 100 U/mL penicillin-streptomycin, and 0.5 mg/mL G418 (Invitrogen). For dose-response testing, the cells were seeded in 96-well plates at 7.5×10^3 cells/well in a volume of 50 μL, and incubated at 37° C./5% CO2. Three hours after plating, 50 μL of ten 2-fold serial dilutions of compounds (highest concentration, 75 μM) were added, and cell cultures were incubated at 37° C./5% CO2 in the presence of 0.5% DMSO. Alternatively, compounds were tested at a single concentration of 15 μM. In all cases, Huh-7 cells lacking the HCV replicon served as negative control. The cells were incubated in the presence of compounds for 72 hr after which they were monitored for expression of the NS4A protein by enzyme-linked immunosorbent assay (ELISA). For this, the plates were then fixed for 1 min with acetone/methanol (1:1, v/v), washed twice with phosphate-buffered saline (PBS), 0.1% Tween 20, blocked for 1 hr at room temperature with TNE buffer containing 10% FBS and then incubated for 2 hr at 37° C. with the anti-NS4A mouse monoclonal antibody A-236 (ViroGen) diluted in the same buffer. After washing three times with PBS, 0.1% Tween 20, the cells were incubated 1 hr at 37° C. with anti-mouse immunoglobulin G-peroxidase conjugate in TNE, 10% FBS. After washing as described above, the reaction was developed with O-phenylenediamine (Zymed). The reaction was stopped after 30 min with 2 N H2SO4, and absorbance was read at 492 nm using Sunrise Tecan spectrophotometer. EC50 values were determined from the % inhibition versus concentration data using a sigmoidal non-linear regression analysis based on four parameters with Tecan Magellan software. When screening at a single concentration, the results were expressed as % inhibition at 15 μM.

[2] = Cytotoxicity evaluation (Cell Titer 96 AQueous One Solution Cell Proliferation Assay); assay type: cell-based; conditions: human; GS4.1 cells, cellular viability
Method: For cytotoxicity evaluation, GS4.1 cells were treated with compounds as described above and cellular viability was monitored using the Cell Titer 96 AQueous One Solution Cell Proliferation Assay (Promega). CC50 values were determined from the % cytotoxicity versus concentration data with Tecan Magellan software as described above.

T1 sequence (P27958 1027-1208): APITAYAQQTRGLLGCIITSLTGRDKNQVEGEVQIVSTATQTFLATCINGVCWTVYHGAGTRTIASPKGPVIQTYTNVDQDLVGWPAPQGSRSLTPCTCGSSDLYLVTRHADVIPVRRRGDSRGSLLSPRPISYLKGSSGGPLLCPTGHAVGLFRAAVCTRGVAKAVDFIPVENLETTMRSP

COc1ccc2c(OCC[C@@H]3NC(=O)N(C)CCCC/C=C\[C@@H]4C[C@@]4(C(=O)NS(=O)(=O)C4(CC5CC5)CC4)NC3=O)cc(-c3nc(C(C)C)cs3)nc2c1Cl
IC50 (HCV NS3-NS4A protease): < 0.1 µM
EC50 [1]: 0.1 to 10 µM
CC50 [2]: > 1000 µM

CCn1ccc(-c2cc(OCC[C@@H]3NC(=O)N(C)CCCC/C=C\[C@@H]4C[C@@]4(C(=O)OS(=O)(=O)C4(C)CC4)NC3=O)c3ccc(OC)c(C)c3n2)n1
IC50 (HCV NS3-NS4A protease): < 0.1 µM
EC50 [1]: 0.1 to 10 µM
CC50 [2]: > 1000 µM

COc1ccc2c(OCC[C@@H]3NC(=O)N(C)CCCC/C=C\[C@@H]4C[C@@]4(C(=O)NS(=O)(=O)C4(C)CC4)NC3=O)cc(-c3nc(C(C)C)cs3)nc2c1Cl
IC50 (HCV NS3-NS4A protease): < 0.1 µM
EC50 [1]: < 0.1 µM
CC50 [2]: > 1000 µM

COc1ccc2c(OCC[C@@H]3NC(=O)N(C)CCCC/C=C\[C@@H]4C[C@@]4(C(=O)NS(=O)(=O)C4CC4)NC3=O)cc(-c3ccccc3)nc2c1
IC50 (HCV NS3-NS4A protease): < 0.1 µM
EC50 [1]: 0.1 to 10 µM
CC50 [2]: > 1000 µM

COc1ccc2c(OCC[C@@H]3NC(=O)N(C)CCCC/C=C\[C@@H]4C[C@@]4(C(=O)NS(=O)(=O)C4CC4)NC3=O)cc(-c3nc(C(C)C)cs3)nc2c1Cl
IC50 (HCV NS3-NS4A protease): < 0.1 µM
EC50 [1]: < 0.1 µM
CC50 [2]: > 1000 µM

COc1ccc2c(OCCC3NC(=O)N(C)CCCC/C=C\C4CC4(C(=O)NS(=O)(=O)N(C)C)NC3=O)cc(-c3nc(C(C)C)cs3)nc2c1Cl (stereo not drawn)
IC50 (HCV NS3-NS4A protease): < 0.1 µM
EC50 [1]: < 0.1 µM
CC50 [2]: > 1000 µM

COc1ccc2c(OCCC3NC(=O)N(C)CCCC/C=C\C4CC4(C(=O)NS(=O)(=O)C4(F)CC4)NC3=O)cc(-c3nc(C(C)C)cs3)nc2c1Cl (stereo not drawn)
IC50 (HCV NS3-NS4A protease): < 0.1 µM
EC50 [1]: 0.1 to 10 µM
CC50 [2]: > 1000 µM

CC(=O)OCC[C@@H]1NC(=O)N(C)CCCC/C=C\[C@@H]2C[C@@]2(C(=O)NS(=O)(=O)C2CC2)NC1=O
IC50 (HCV NS3-NS4A protease): 0.1 to 10 µM
EC50 [1]: > 1000 µM
CC50 [2]: > 1000 µM

COc1ccc2c(OCC[C@@H]3NC(=O)N(C)CCCC/C=C\[C@@H]4C[C@@]4(C(=O)NS(=O)(=O)C4(C)CC4)NC3=O)cc(-n3ccc(C(C)C)n3)nc2c1Cl
IC50 (HCV NS3-NS4A protease): < 0.1 µM
EC50 [1]: < 0.1 µM
CC50 [2]: > 1000 µM

CCC1(S(=O)(=O)NC(=O)[C@@]23C[C@H]2/C=C\CCCCN(C)C(=O)N[C@@H](CCOc2cc(-c4nc(C(C)C)cs4)nc4c(Cl)c(OC)ccc24)C(=O)N3)CC1
IC50 (HCV NS3-NS4A protease): < 0.1 µM
EC50 [1]: < 0.1 µM
CC50 [2]: > 1000 µM

C#C[C@@H]1CCCN1S(=O)(=O)NC(=O)[C@@]12C[C@H]1/C=C\CCCCN(C)C(=O)N[C@@H](CCOc1cc(-c3nc(C(C)C)cs3)nc3c(Cl)c(OC)ccc13)C(=O)N2
IC50 (HCV NS3-NS4A protease): < 0.1 µM
EC50 [1]: 0.1 to 10 µM
CC50 [2]: > 1000 µM

COc1ccc2c(OCC[C@@H]3NC(=O)N(C)CCCC/C=C\[C@@H]4C[C@@]4(C(=O)NS(=O)(=O)N4CCC(F)(F)C4)NC3=O)cc(-c3nc(C(C)C)cs3)nc2c1Cl
IC50 (HCV NS3-NS4A protease): 0.1 to 10 µM
EC50 [1]: 0.1 to 10 µM
CC50 [2]: > 1000 µM

COc1ccc2c(OCCC3NC(=O)N(C)CCCC/C=C\C4CC4(C(=O)NS(=O)(=O)C4(C)CC4)NC3=O)cc(-c3nc(C(C)C)cs3)nc2c1F (stereo not drawn)
IC50 (HCV NS3-NS4A protease): < 0.1 µM
EC50 [1]: 0.1 to 10 µM
CC50 [2]: > 1000 µM

COc1ccc2c(OCC[C@@H]3NC(=O)N(C)CCCC/C=C\[C@@H]4C[C@@]4(C(=O)NS(=O)(=O)C4(C)CC4)NC3=O)cc(-n3ccc(C(C)C)n3)nc2c1C
IC50 (HCV NS3-NS4A protease): < 0.1 µM
EC50 [1]: < 0.1 µM
CC50 [2]: > 1000 µM

COc1ccc2c(OCC[C@@H]3NC(=O)N(C)CCCC/C=C\[C@@H]4C[C@@]4(C(=O)O)NC3=O)cc(-c3ccccc3)nc2c1
IC50 (HCV NS3-NS4A protease): 0.1 to 10 µM
EC50 [1]: 10 to 1000 µM
CC50 [2]: > 1000 µM

COc1ccc2c(OCC[C@@H]3NC(=O)N(C)CCCC/C=C\[C@@H]4C[C@@]4(C(=O)NS(=O)(=O)C4(C)CC4)NC3=O)cc(-c3csc(NC(C)C)n3)nc2c1
IC50 (HCV NS3-NS4A protease): < 0.1 µM
EC50 [1]: 0.1 to 10 µM
CC50 [2]: > 1000 µM

COc1ccc2c(OCC[C@@H]3NC(=O)N(C)CCCC/C=C\[C@@H]4C[C@@]4(C(=O)NS(=O)(=O)C4(C)CC4)NC3=O)cc(-c3ccn(CCN4CCOCC4)n3)nc2c1C
IC50 (HCV NS3-NS4A protease): < 0.1 µM
EC50 [1]: 0.1 to 10 µM
CC50 [2]: > 1000 µM

COc1ccc2c(OCCC3NC(=O)N(C)CCCC/C=C\C4CC4(C(=O)NS(=O)(=O)C4(C)CC4)NC3=O)cc(-c3nc(C(C)C)cs3)nc2c1Br (stereo not drawn)
IC50 (HCV NS3-NS4A protease): < 0.1 µM
EC50 [1]: < 0.1 µM
CC50 [2]: > 1000 µM

COc1ccc2c(OCC[C@@H]3NC(=O)N(C)CCCC/C=C\[C@@H]4C[C@@]4(C(=O)NS(=O)(=O)C4CC4)NC3=O)cc(-c3nc(C(C)C)cs3)nc2c1F
IC50 (HCV NS3-NS4A protease): < 0.1 µM
EC50 [1]: 10 to 1000 µM
CC50 [2]: > 1000 µM

COc1ccc2c(OCC[C@@H]3NC(=O)N(C)CCCC/C=C\[C@@H]4C[C@@]4(C(=O)NS(=O)(=O)C4(C)CC4)NC3=O)cc(-c3nc(C(C)C)cs3)nc2c1
IC50 (HCV NS3-NS4A protease): < 0.1 µM
EC50 [1]: < 0.1 µM
CC50 [2]: 10 to 1000 µM

COc1ccc2c(OCCC3NC(=O)N(C)CCCC/C=C\C4CC4(C(=O)NS(=O)(=O)N4CCOCC4)NC3=O)cc(-c3nc(C(C)C)cs3)nc2c1Cl (stereo not drawn)
IC50 (HCV NS3-NS4A protease): 0.1 to 10 µM
EC50 [1]: 0.1 to 10 µM
CC50 [2]: > 1000 µM

C#CC1(S(=O)(=O)NC(=O)C23CC2/C=C\CCCCN(C)C(=O)NC(CCOc2cc(-c4nc(C(C)C)cs4)nc4c(Cl)c(OC)ccc24)C(=O)N3)CC1 (stereo not drawn)
IC50 (HCV NS3-NS4A protease): < 0.1 µM
EC50 [1]: < 0.1 µM
CC50 [2]: > 1000 µM

COc1ccc2c(OCC[C@@H]3NC(=O)N(C)CCCC/C=C\[C@@H]4C[C@@]4(C(=O)NS(=O)(=O)C4(C)CC4)NC3=O)cc(-c3cc(C(F)(F)F)nn3C)nc2c1C
IC50 (HCV NS3-NS4A protease): < 0.1 µM
EC50 [1]: 0.1 to 10 µM
CC50 [2]: > 1000 µM

COc1ccc2c(OCC[C@@H]3NC(=O)N(C)CCCC/C=C\[C@@H]4C[C@@]4(C(=O)NS(=O)(=O)C4(I)CC4)NC3=O)cc(-c3nc(C(C)C)cs3)nc2c1C
IC50 (HCV NS3-NS4A protease): < 0.1 µM
EC50 [1]: 0.1 to 10 µM
CC50 [2]: > 1000 µM

COc1ccc2c(OCC[C@@H]3NC(=O)N(C)CCCC/C=C\[C@@H]4C[C@@]4(C(=O)NS(=O)(=O)C4(C)CC4)NC3=O)cc(-c3nc(C(C)C)cs3)nc2c1C
IC50 (HCV NS3-NS4A protease): < 0.1 µM
EC50 [1]: < 0.1 µM
CC50 [2]: > 1000 µM

COc1ccc2c(OCC[C@@H]3NC(=O)N(C)CCCC/C=C\[C@@H]4C[C@@]4(C(=O)NS(=O)(=O)C4(C)CC4)NC3=O)cc(-c3ccn(CCC(C)C)n3)nc2c1C
IC50 (HCV NS3-NS4A protease): < 0.1 µM
EC50 [1]: 0.1 to 10 µM
CC50 [2]: > 1000 µM

COc1ccc2c(OCC[C@@H]3NC(=O)N(C)CCCC/C=C\[C@@H]4C[C@@]4(C(=O)OS(=O)(=O)C4(C)CC4)NC3=O)cc(-n3ccc(C(F)(F)F)n3)nc2c1C
IC50 (HCV NS3-NS4A protease): < 0.1 µM
EC50 [1]: < 0.1 µM
CC50 [2]: > 1000 µM

COc1ccc2c(OCC[C@@H]3NC(=O)N(C)CCCC/C=C\[C@@H]4C[C@@]4(C(=O)NS(=O)(=O)C4(C)CC4)NC3=O)cc(-n3ccc(C(F)(F)F)n3)nc2c1Cl
IC50 (HCV NS3-NS4A protease): < 0.1 µM
EC50 [1]: < 0.1 µM
CC50 [2]: > 1000 µM

COc1ccc2c(OCC[C@@H]3NC(=O)N(C)CCCC/C=C\[C@@H]4C[C@@]4(C(=O)NS(=O)(=O)N4CCC[C@H]4C#N)NC3=O)cc(-c3nc(C(C)C)cs3)nc2c1Cl
IC50 (HCV NS3-NS4A protease): 0.1 to 10 µM
EC50 [1]: 0.1 to 10 µM
CC50 [2]: > 1000 µM
